The results in this text go back to patent publication US10745382B2 (BRISTOL-MYERS SQUIBB COMPANY, priority 2015, dated 2020).

pIC50: −log10 of the molar value.

T1 sequence (Q9NZQ7 with tags, fused parts or gaps): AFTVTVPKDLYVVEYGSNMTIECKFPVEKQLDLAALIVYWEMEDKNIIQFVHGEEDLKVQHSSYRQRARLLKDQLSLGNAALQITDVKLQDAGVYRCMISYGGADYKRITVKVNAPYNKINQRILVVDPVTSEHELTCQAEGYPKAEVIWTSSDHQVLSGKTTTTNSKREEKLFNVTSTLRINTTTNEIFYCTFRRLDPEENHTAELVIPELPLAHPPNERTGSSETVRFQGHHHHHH

The test has as its target T1, PD-1/PD-L1 (Homo sapiens, UniProt Q9NZQ7).
T1 construct: made in house; host or cells: HEK293T
In words: PD-1/PD-L1 Homogenous Time-Resolved Fluorescence (HTRF) binding assay. The conditions noted are these: PD-L1-His 10 nM, PD-1-Ig 20 nM; value given as range class; read-out: Range or IC50. The gist of the method: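 Additional pairs run were PD-1-Ig with PD-L2-His (20 & 5 nM) and CD80-His with PD-L1-Ig (100 & 10 nM), all human proteins. Buffer: dPBS plus 0.1% BSA, 0.05% Tween-20; time-resolved FRET read-out via 1 nM Eu-cryptate anti-Ig and 20 nM APC anti-His, final concentrations.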
Take `Cc1c(COc2cc(OCc3cncc(C#N)c3)c(CNC[C@H](O)CO)cc2Cl)cccc1-c1cccc(OCCCN(C)C[C@H](O)CO)c1Cl` [Example 2029, 5-((4-chloro-5-((2′-chloro-3′-(3-(((S)-2,3-dihydroxypropyl)(methyl)amino)propoxy)-2-methyl-[1,1′-biphenyl]-3-yl)methoxy)-2-((((S)-2,3-dihydroxypropyl)amino)methyl)phenoxy)methyl)nicotinonitrile]: the pIC50 was 8.00 to 9.68.

As for `Cc1c(COc2cc(OCc3cncc(C#N)c3)c(CNC[C@H](O)CO)cc2Cl)cccc1-c1cccc(OCCCN2CC[C@H](O)[C@@H](O)C2)c1Cl` [Example 2030, 5-((4-chloro-5-((2′-chloro-3′-(3-((3S,4S)-3,4-dihydroxypiperidin-1-yl)propoxy)-2-methyl-[1,1′-biphenyl]-3-yl)methoxy)-2-((((S)-2,3-dihydroxypropyl)amino)methyl)phenoxy)methyl)nicotinonitrile], the pIC50 was 8.00 to 9.68.

As to `Cc1c(COc2cc(OCc3cncc(C#N)c3)c(CNC[C@H](O)CO)cc2Cl)cccc1-c1cccc(OCCCN2CC[C@H](CO)[C@H](O)C2)c1Cl` [Example 2031, 5-((4-chloro-5-((2′-chloro-3′-(3-((3 S,4R)-3-hydroxy-4-(hydroxymethyl)piperidin-1-yl)propoxy)-2-methyl-[1,1′-biphenyl]-3-yl)methoxy)-2-((((S)-2,3-dihydroxypropyl)amino)methyl)phenoxy)methyl)nicotinonitrile], the pIC50 is 8.00 to 9.68.

As to `Cc1c(COc2cc(OCc3cncc(C#N)c3)c(CNC[C@H](O)CO)cc2Cl)cccc1-c1cccc(OCCCN(C)CCC(N)=O)c1Cl` [Example 2032, (S)-3-((3-((2-chloro-3′-((2-chloro-5-((5-cyanopyridin-3-yl)methoxy)-4-(((2,3-dihydroxypropyl)amino)methyl)phenoxy)methyl)-2′-methyl-[1,1′-biphenyl]-3-yl)oxy)propyl)(methyl)amino)propanamide], the pIC50 was 8.00 to 9.68.

Turning to `N#Cc1cncc(COc2cc(OCc3cccc(-c4cccc(OCCCNC[C@H](O)CO)c4Cl)c3Cl)c(Cl)cc2CNC[C@H](O)CO)c1` [Example 2033, 5-((4-chloro-5-((2,2′-dichloro-3′-(3-(((S)-2,3-dihydroxypropyl)amino)propoxy)-[1,1′-biphenyl]-3-yl)methoxy)-2-((((S)-2,3-dihydroxypropyl)amino)methyl)phenoxy)methyl)nicotinonitrile], the pIC50 is 8.00 to 9.68.

Consider `N#Cc1cncc(COc2cc(OCc3cccc(-c4cccc(OCCCN5CC[C@@H](O)C5)c4Cl)c3Cl)c(Cl)cc2CNC[C@H](O)CO)c1` [Example 2034, 5-((4-chloro-5-((2,2′-dichloro-3′-(3-((R)-3-hydroxypyrrolidin-1-yl)propoxy)-[1,1′-biphenyl]-3-yl)methoxy)-2-((((S)-2,3-dihydroxypropyl)amino)methyl)phenoxy)methyl)nicotinonitrile], for which the pIC50 is 8.00 to 9.68.

For `Cc1c(COc2cc(OCc3cncc(C#N)c3)c(CNC(CO)CO)cc2Cl)cccc1-c1cccc(OCCCN2CC[C@@H](O)C2)c1Cl` [Example 2035, (R)-5-((4-chloro-5-((2′-chloro-3′-(3-(3-hydroxypyrrolidin-1-yl)propoxy)-2-methyl-[1,1′-biphenyl]-3-yl)methoxy)-2-(((1,3-dihydroxypropan-2-yl)amino)methyl)phenoxy)methyl)nicotinonitrile], the pIC50 is 8.00 to 9.68.

`Cc1c(COc2cc(OCc3cncc(C#N)c3)c(CNC(CO)CO)cc2Cl)cccc1-c1cccc(OCCCNC[C@H](O)CO)c1Cl` [Example 2036, (S)-5-((4-chloro-5-((2′-chloro-3′-(3-((2,3-dihydroxypropyl)amino)propoxy)-2-methyl-[1,1′-biphenyl]-3-yl)methoxy)-2-(((1,3-dihydroxypropan-2-yl)amino)methyl)phenoxy)methyl)nicotinonitrile]: the negative-log IC50 (pIC50) was 8.00 to 9.68.

`Cc1c(COc2cc(OCc3cncc(C#N)c3)c(CNC(CO)CO)cc2Cl)cccc1-c1cccc(OCCCNCCc2cccnc2)c1Cl` [Example 2037, 5-((4-chloro-5-((2′-chloro-2-methyl-3′-(3-((2-(pyridin-3-yl)ethyl)amino)propoxy)-[1,1′-biphenyl]-3-yl)methoxy)-2-(((1,3-dihydroxypropan-2-yl)amino)methyl)phenoxy)methyl)nicotinonitrile]: the pIC50 was 8.00 to 9.68.

In the case of `Cc1c(COc2cc(OCc3cncc(C#N)c3)c(CN[C@](C)(CO)C(=O)O)cc2Cl)cccc1-c1cccc(OCCCNC(CO)CO)c1Cl` [Example 2038, (R)-2-((5-chloro-4-((2′-chloro-3′-(3-((1,3-dihydroxypropan-2-yl)amino)propoxy)-2-methyl-[1,1′-biphenyl]-3-yl)methoxy)-2-((5-cyanopyridin-3-yl)methoxy)benzyl)amino)-3-hydroxy-2-methylpropanoic Acid], the pIC50 was 8.00 to 9.68.

For the compound `Cc1c(COc2cc(OCc3cncc(C#N)c3)c(CO)cc2Cl)cccc1-c1cccc(OCCCNC(CO)CO)c1Cl` [Example 2039, 5-((4-chloro-5-((2′-chloro-3′-(3-((1,3-dihydroxypropan-2-yl)amino)propoxy)-2-methyl-[1,1′-biphenyl]-3-yl)methoxy)-2-(hydroxymethyl)phenoxy)methyl)nicotinonitrile], the pIC50 is 8.00 to 9.68.

`Cc1c(COc2cc(OCc3cncc(C#N)c3)c(CN[C@](C)(CO)C(=O)O)cc2Cl)cccc1-c1cccc(OCCCNC(CO)(CO)CO)c1Cl` [Example 2040, (R)-2-((5-chloro-4-((2′-chloro-3′-(3-((1,3-dihydroxy-2-(hydroxymethyl)propan-2-yl)amino)propoxy)-2-methyl-[1,1′-biphenyl]-3-yl)methoxy)-2-((5-cyanopyridin-3-yl)methoxy)benzyl)amino)-3-hydroxy-2-methylpropanoic Acid]: the pIC50 was 8.00 to 9.68.

For the compound `Cc1c(COc2cc(OCc3cncc(C#N)c3)c(CO)cc2Cl)cccc1-c1cccc(OCCCNC(CO)(CO)CO)c1Cl` [Example 2041, 5-((4-chloro-5-((2′-chloro-3′-(3-((1,3-dihydroxy-2-(hydroxymethyl)propan-2-yl)amino)propoxy)-2-methyl-[1,1′-biphenyl]-3-yl)methoxy)-2-(hydroxymethyl)phenoxy)methyl)nicotinonitrile], the pIC50 is 7.00 to 8.00.

As to `Cc1c(COc2cc(OCc3cncc(C#N)c3)c(CNC(CO)CO)cc2Cl)cccc1-c1cccc(OCCCNC(CO)CO)c1Cl` [Example 2042, 5-((4-chloro-5-((2′-chloro-3′-(3-((1,3-dihydroxypropan-2-yl)amino)propoxy)-2-methyl-[1,1′-biphenyl]-3-yl)methoxy)-2-(((1,3-dihydroxypropan-2-yl)amino)methyl)phenoxy)methyl)nicotinonitrile], the pIC50 was 8.00 to 9.68.

For `Cc1c(COc2cc(OCc3cncc(C#N)c3)c(CN[C@](C)(CO)C(=O)O)cc2Cl)cccc1-c1cccc(OCCCN2CCCC(CO)C2)c1Cl` (stereo partly drawn) [Example 2043, (2R)-2-((5-chloro-4-((2′-chloro-3′-(3-(3-(hydroxymethyl)piperidin-1-yl)propoxy)-2-methyl-[1,1′-biphenyl]-3-yl)methoxy)-2-((5-cyanopyridin-3-yl)methoxy)benzyl)amino)-3-hydroxy-2-methylpropanoic Acid], the pIC50 is 8.00 to 9.68.

In the case of `Cc1c(COc2cc(OCc3cncc(C#N)c3)c(CO)cc2Cl)cccc1-c1cccc(OCCCN2CCCC(CO)C2)c1Cl` (stereo not drawn) [Example 2044, 5-((4-chloro-5-((2′-chloro-3′-(3-(3-(hydroxymethyl)piperidin-1-yl)propoxy)-2-methyl-[1,1′-biphenyl]-3-yl)methoxy)-2-(hydroxymethyl)phenoxy)methyl)nicotinonitrile], the pIC50 was 8.00 to 9.68.

Take `N#Cc1cncc(COc2cc(OCc3cccc(-c4cccc(OCCCN5CCCCC5)c4Cl)c3Cl)c(Cl)cc2CN2CCCC[C@H]2C(=O)O)c1` [Example 2045, (S)-1-(5-chloro-2-((5-cyanopyridin-3-yl)methoxy)-4-((2,2′-dichloro-3′-(3-(piperidin-1-yl)propoxy)-[1,1′-biphenyl]-3-yl)methoxy)benzyl)piperidine-2-carboxylic Acid]: the pIC50 was 8.00 to 9.68.

In the case of `N#Cc1cncc(COc2cc(OCc3cccc(-c4cccc(OCCCN5CCCCC5)c4Cl)c3Cl)c(Cl)cc2CO)c1` [Example 2046, 5-((4-chloro-5-((2,2′-dichloro-3′-(3-(piperidin-1-yl)propoxy)-[1,1′-biphenyl]-3-yl)methoxy)-2-(hydroxymethyl)phenoxy)methyl)nicotinonitrile], the pIC50 is 8.00 to 9.68.

As for `CC(=O)NC1CCN(CCCOc2cccc(-c3cccc(COc4cc(OCc5cncc(C#N)c5)c(CN5CCCC[C@H]5C(=O)O)cc4Cl)c3Cl)c2Cl)C1` (stereo partly drawn) [Example 2047, (2S)-1-(4-((3′-(3-(3-acetamidopyrrolidin-1-yl)propoxy)-2,2′-dichloro-[1,1′-biphenyl]-3-yl)methoxy)-5-chloro-2-((5-cyanopyridin-3-yl)methoxy)benzyl)piperidine-2-carboxylic Acid], the pIC50 was 8.00 to 9.68.

Take `Cc1c(COc2cc(OCc3cncc(C#N)c3)c(CN[C@](C)(CO)C(=O)O)cc2Cl)cccc1-c1cccc(OCCCNC[C@H](O)CO)c1Cl` [Example 2048, (R)-2-((5-chloro-4-((2′-chloro-3′-(3-(((S)-2,3-dihydroxypropyl)amino)propoxy)-2-methyl-[1,1′-biphenyl]-3-yl)methoxy)-2-((5-cyanopyridin-3-yl)methoxy)benzyl)amino)-3-hydroxy-2-methylpropanoic Acid]: the pIC50 is 8.00 to 9.68.

For the compound `N#Cc1cncc(COc2cc(OCc3cccc(-c4cccc(OCCCNC[C@H](O)CO)c4Cl)c3Cl)c(Cl)cc2CN2CCCC[C@H]2C(=O)O)c1` [Example 2049, (S)-1-(5-chloro-2-((5-cyanopyridin-3-yl)methoxy)-4-((2,2′-dichloro-3′-(3-(((S)-2,3-dihydroxypropyl)amino)propoxy)-[1,1′-biphenyl]-3-yl)methoxy)benzyl)piperidine-2-carboxylic Acid], the pIC50 was 8.00 to 9.68.
